Results published in PubChem BioAssay AID463206 (Broad Institute, 2010).
The source made the active and inactive calls.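 Rule for the calls: active = caspase luminescence falls with dose and the half-maximal concentration AC50 from the fitted curve is at or below a set limit; inconclusive = flat fit at 30 to 70% signal loss, or invalid fit; inactive = AC50 above the limit, or signal rises instead.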

Tested on: INS-1E cytokine-induced caspase-3/7, Caspase-Glo luminescence, 48 h
Experiment: inhibitors of cytokine-induced caspase-3/7 activity, dose response, orthogonal assay for beta-cell apoptosis protection project, INS-1E rat cells, luminescence (AID 463206)

Row | SMILES | AC50
1 | Cc1nc(C(=O)NNC(=O)c2c(-c3c(Cl)cccc3Cl)noc2C)cs1 | > 26 µM (inactive)
2 | CCCCC1CCC(C(=O)N(CC(C)C)c2c(N)n(Cc3ccccc3)c(=O)[nH]c2=O)CC1 (stereo not drawn) | > 26 µM (inactive)
3 | Cc1ccc(-c2c[n+](Cc3ccc(Cl)c(Cl)c3)c3n2CCC3)cc1 | > 26 µM (inactive)
4 | O=[N+]([O-])c1ccc(N=Nc2c(Cl)cc(O)cc2Cl)cc1 | > 26 µM (inactive)
5 | CN(c1ccccc1)S(=O)(=O)c1ccc(NC(=O)c2nc(S(C)(=O)=O)ncc2Cl)cc1 | > 26 µM (inactive)
6 | Cc1nc(C)c(C(=O)N/N=C/c2cc(Br)ccc2O)s1 | > 26 µM (inactive)
7 | COc1ccc(/C=C/C(=O)c2ccc([N+](=O)[O-])o2)cc1 | > 26 µM (inactive)
8 | O=NN(CCc1ccncc1)c1ccc(OCc2ccccc2)cc1 | > 26 µM (inactive)
9 | NC(N)=NC(N)=Nc1ccc(SC(F)(F)F)cc1 | > 26 µM (inactive)
10 | O=C(c1cc(COc2ccc3ncccc3c2)on1)N1CCCCCC1 | > 26 µM (inactive)
11 | Nc1ccc(Nc2ccc([N+](=O)[O-])cc2[N+](=O)[O-])cc1 | > 26 µM (inactive)
12 | Cc1nnc2ccc(Oc3ccc(-c4ccccc4)cc3)nn12 | > 26 µM (inactive)
13 | CCOC(=O)c1c(NC(=O)c2cc(-c3ccc(Cl)s3)nc3ccccc23)sc(C(N)=O)c1C | > 26 µM (inactive)
14 | CCCCCCCCCn1c2c(c(=N)c3c1CCC3)CCC2 | > 12 µM (inactive)
15 | O=[N+]([O-])c1ccc(O)c(-c2cc(C(F)(F)F)nc(-c3ccccc3)n2)c1 | > 26 µM (inactive)
16 | COC(=O)c1sccc1S(=O)(=O)Nc1ccc(N2CCCCC2)cc1 | > 26 µM (inactive)
17 | COc1cc(/C=C(/C(=O)c2cccs2)c2nc3ccccc3[nH]2)ccc1O | > 26 µM (inactive)
18 | Cc1ccc2cc(C3C(C#N)=C(N)Oc4c3ccc3cccnc43)c(=O)[nH]c2c1 (stereo not drawn) | > 26 µM (inactive)
19 | O=C(C1=C[C@@H](c2ccc(C(F)(F)F)cc2)C[C@@H](OCCCCO)O1)N1CCN(Cc2ccccc2)CC1 | > 26 µM (inactive)

Row | SMILES | AC50
20 | CCCN(CCC)C(=O)c1cc([N+](=O)[O-])cc2c1-c1ccc([N+](=O)[O-])cc1C2=C(C#N)C#N | > 26 µM (inactive)
21 | Cc1ccc(NC(=O)Cn2c(O)c(N=NC(=O)c3cc4ccccc4cc3O)c3ccccc32)cc1 | > 26 µM (inactive)
22 | CN(C)S(=O)(=O)c1cccc(CSCc2cccc(S(=O)(=O)N(C)C)c2)c1 | > 26 µM (inactive)
23 | CCOC(=O)c1ccc(NC(=O)c2cccnc2)cc1 | > 26 µM (inactive)
24 | Cc1c2ccncc2c(C)c2c1[nH]c1ccccc12 | 1.11 µM
25 | Cc1cc(F)ccc1S(=O)(=O)Nc1ccccc1C(=O)Nc1ccccc1-c1nc2ccccc2[nH]1 | > 26 µM (inactive)
26 | O=C1/C(=C/c2cccnc2)CCC/C1=C\c1cccnc1 | > 26 µM (inactive)
27 | CN(C)CCCNc1c2ccccc2nc2ccccc12 | > 26 µM (inactive)
28 | CC1=NN(c2nc3ccccc3[nH]2)C(=O)/C1=C/N(C)C | > 26 µM (inactive)
29 | N#CC(c1ccc(Cl)cc1)c1ccc2c(C(F)(F)F)cc(C(F)(F)F)nc2n1 (stereo not drawn) | > 26 µM (inactive)
30 | CCCCCCCNC1=CC(=O)CC(c2ccccc2)C1 (stereo not drawn) | > 12 µM (inactive)
31 | O=C(NCC#CCSc1nnc(-c2cccc3ccccc23)o1)c1cccs1 | > 26 µM (inactive)
32 | Oc1c(CN2CCN(c3ccccc3)CC2)cc(Br)c2cccnc12 | > 26 µM (inactive)
33 | Cc1ccc(NC(=O)c2c(C(F)(F)F)nn(C)c2SCc2cccc(C(F)(F)F)c2)cc1C | > 26 µM (inactive)
34 | Fc1ccc(Oc2nc(-c3ccccn3)nc3ccccc23)cc1 | > 26 µM (inactive)
35 | CC(NC(=O)c1cc(COc2ccc3ncccc3c2)on1)c1ccc(F)cc1 (stereo not drawn) | > 26 µM (inactive)
36 | O=C(NCc1cccnc1)c1cc(-c2ccco2)on1 | > 26 µM (inactive)
37 | Oc1cccc(C(Nc2nccs2)c2ccc3cccnc3c2O)c1 (stereo not drawn) | > 26 µM (inactive)
38 | Cc1cc(C(=O)CSc2nc3ccccc3c(=O)n2C)c(C)n1Cc1ccc2c(c1)OCO2 | > 26 µM (inactive)
